Consider 8 molecules from patent publication US20250319117A1, “METHODS AND COMPOSITIONS FOR TREATING FIBROSIS” (THE UNIVERSITY OF CHICAGO, priority 2021, published 2025).

For data set [1], the system named is talin1 and talin2. The conditions noted are these: literature [83]; cited from earlier work.
Data set [2] deals with fibrosis. Particulars: literature [4], [6]; cited from earlier work.
The subject of data set [3] is human monocyte-myofibroblast differentiation. The data set is described as follows: Human monocyte-myofibroblast de-differentiation assessed by morphology. The class given is cell-based. The conditions noted are these: added to culture of human monocyte-myofibroblasts (FIG. 1A, 1B). The protocol: Monocytes were purified from PBMCs by use of a negative selection kit for human monocytes (Stemcell, Cambridge, MA), per the manufacturer's instructions. Approximately 20 million monocytes were purified from each filter. Monocytes were then washed by PBS using five successive 300×G centrifugation steps, in order to remove EDTA from the resulting population. Monocytes were checked for purity using flow cytometry, and average purity was above 95%. Monocytes were cultured immediately following purification, at 100,000 monocytes/cm^2.
(§1) Human and mouse monocytes were cultured as previously described, using serum-free media (SFM). Briefly, SFM for human cells is composed of fibrolife (Lifeline, Frederick, MD), with 1× ITS-3 (Sigma, St. Louis, MO), 1× HEPES buffer (Sigma), 1× non-essential amino acids (Sigma), 1× sodium pyruvate (Sigma), and penicillin-streptomycin with glutamate (Sigma). For mouse monocytes, 2× concentrations of ITS-3, HEPES buffer, non-essential amino acids, and sodium pyruvate were added, with 50 μM β-mercaptoenthanol (ThermoFisher) and pro-fibrotic supplements M-CSF (25 ng/ml, Peprotech, Rocky Hill, NJ) and IL-13 (50 ng/ml) to induce myofibroblast differentiation. Additionally, M-CSF and IL-13 were refreshed in the media of mouse monocytes after 3 days of culture. Monocytes were allowed to differentiate for 5 days, and counted based on morphology as previously described. […]

For data set [4], the system named is human monocyte-derived myofibroblasts. Description: Flow cytometry of human monocyte-derived myofibroblasts treated with antibodies or leukadherin. The conditions noted are these: antibody 500 ng/ml, leukadherin 2 ng/ml. The class given is cell-based. The text has this:
(§2) Myofibroblasts were de-differentiated by addition of antibodies (α-αMβ2, α-αM, α-α3) for 7 days after the 5 day differentiation was completed. Antibodies were free of azide, glycerol, and other preservatives.
(§3) Cultured myofibroblasts were lifted with ice cold trypsin-EDTA (Sigma), followed by mechanical agitation by a rubber policeman. Myofibroblasts were fixed and permeabilized using Cytofix/Cytoperm (BD biosciences, Franklin Lakes, NJ), and live-dead stained (live-dead aqua, ThermoFisher) per manufacturer's instructions. Antibodies used were α-collagen I (Biolegend, San Diego, CA), anti-α smooth muscle actin (αSMA) (R and D systems, Minneapolis, MN), α-ki-67 (BD biosciences), and α-talin2 (R and D systems). Compensation was performed via UltraComp beads (ThermoFisher) per the manufacturer's instructions.

The test system is the same in data set [5]. Description: Legendplex ELISA of conditioned media, human monocyte-derived myofibroblasts. The conditions noted are these: antibody 500 ng/ml, leukadherin 2 ng/ml. The class given is cell-based. The protocol:
Supernatant from cultured human and mouse myofibroblasts were thawed at 4 C, and centrifuged at 4 C and 10,000×G to pellet cell debris. Supernatant was taken and added to 96 well round bottom plates, in duplicate. Legendplex (Biolegend) beads against general inflammation markers were added, according to the manufacturer's instructions. Sample readouts were normalized to each individual donor control.
A general note: An ELISA detects its analyte on a solid surface through an enzyme-linked reagent.

The subject of data set [6] is mouse monocyte-derived myofibroblasts. The data set is described as follows: Mouse monocyte-derived myofibroblast de-differentiation assessed by morphology. The class given is cell-based. Particulars: 1 week (FIG. 2A, 2B).
Source text: Spleens were pushed through a 100 µm filter to disassociate the cells. Monocytes were purified from disassociated cells by use of a negative selection kit (Stemcell), following the manufacturer's instructions. The purified monocytes were then washed by PBS using five successive 300×G centrifugation steps, in order to remove EDTA from the resulting population. Monocytes were checked for purity using flow cytometry, and average purity was above 95%. The average yield was 1.5 million monocytes per spleen. Monocytes were cultured immediately following purification, at 250,000 monocytes/cm^2.
as §1, with “Additionally, M-CSF and IL-13 were refreshed in the media of mouse monocytes after 3 days of culture.” left out

For data set [7] the test system is unchanged. The data set is described as follows: Flow cytometry of mouse monocyte-derived myofibroblasts treated with antibodies or leukadherin. Particulars: antibody 500 ng/ml. The class given is cell-based.
Source text: as §2, §3
For orientation: Flow cytometry measures light scatter and fluorescence of single cells or particles in a stream.

Data set [8] shares this test system. Description: Flow cytometry of mouse monocyte-derived myofibroblasts treated with siRNA. The class given is cell-based. The conditions noted are these: 50 nM siRNA mixtures or individual siRNAs (FIG. 27D). How it is done:
Human and mouse monocytes were cultured as previously described, using serum-free media (SFM). Briefly, SFM for human cells is composed of fibrolife (Lifeline, Frederick, MD), with 1× ITS-3 (Sigma, St. Louis, MO), 1× HEPES buffer (Sigma), 1× non-essential amino acids (Sigma), 1× sodium pyruvate (Sigma), and penicillin-streptomycin with glutamate (Sigma). For mice, 2× concentrations of ITS-3, HEPES buffer, non-essential amino acids, and sodium pyruvate are added. For mouse monocytes, […] beta-mercaptoenthanol (ThermoFisher) was also added, as were pro-fibrotic supplements M-CSF (25 ng/ml, Peprotech, Rocky Hill, NJ) and IL-13 (50 ng/ml). Additionally, M-CSF and IL-13 were refreshed in the media of mouse monocytes after 3 days of culture.
Accell Silencing RNA (siRNA, Dharmacon, Lafayette, CO) is specifically engineered to penetrate cells without the use of transfection reagents, due to a cholesterol modification at one terminus of the sequence. […] Thus, Accell siRNA targets all cells in a population, not just those that are replicating. […] Lastly, Accell siRNA contains a modification that inhibits enzymatic digestion within cells. Thus, Accell siRNA made a natural choice for this experiment, and all siRNAs used in this study are Accell siRNA. siRNA was resuspended in RNAse-free ultrapure water, as per the manufacturer's instructions. […]

Data set [9] concerns mouse fibroblast-derived myofibroblasts. The data set is described as follows: Flow cytometry of mouse fibroblast-derived myofibroblasts treated with siRNA. The class given is cell-based. Particulars: 50 nM siRNA. How it is done: Human fibroblasts (MRC-5, ATCC, Manassas, VA) and mouse fibroblasts (NIH-3T3, ATCC) were cultured in SFM composed for human cells, with 1× concentrations of additives. TGF-b (Peprotech) was added to induce myofibroblast formation at 5 ng/ml. Cells were cultured at 10,000/cm^2, and TGF-β was refreshed in cultures weekly to maintain the myofibroblast phenotype.
The SMARTpool of siRNA targeting human talin2 contained four target sequences, while the anti-parallel corresponding siRNA sequences actually silenced the mRNA. Target sequences: #1 (CCAGAAAACUGAACGAUUA) (SEQ ID NO:29), #2 (GCCCUGUCCUUAAAGAUUU) (SEQ ID NO:30), #3 (CGACUGUGGUUAAAUACUC) (SEQ ID NO:31), and #4 (CGAGAAAGCUUGUGAGUUU) (SEQ ID NO:32). SMARTpool targeting mouse talin2 also contained four target sequences: #1 […], #2 (CUGGAAAAUUCAGUGAUGA) (SEQ ID NO:26), #3 (CCCUGGAUUUUGAAGAACA) (SEQ ID NO:27), and #4 (CCAUCGAGUACAUAAAACA) (SEQ ID NO:28). Control non-targeting SMARTpools contained 4 target sequences, including: #1 (CCAGAAAACUGAACGAUUA) (SEQ ID NO:29), #2 (GCCCUGUCCUUAAAGAUUU) (SEQ ID NO:30), #3 (CGACUGUGGUUAAAUACUC) (SEQ ID NO:31), and #4 (CGAGAAAGCUUGUGAGUUU) (SEQ ID NO:32). Individual siRNA tested in mice was talin2 siRNA #2, target: 5′ CUGGAAAAUUCAGUGAUGA 3′ (SEQ ID NO:26), anti-sense: 5′ UCAUCACUGAAUUUUCCAG 3′ (SEQ ID NO:37). […]

The test system of data set [10] is bleomycin insult to mouse lungs. Description: Bleomycin lung fibrosis model, lung instillation of talin2 siRNA. The class given is in vivo.
The target of data set [11] is Integrin-αM (human, on monocyte-derived myofibroblasts) (human) (UniProt P11215). The data set is described as follows: cell-based or functional assay.
Data set [12] concerns the target Integrin αMβ2 (human, MAC1, on monocyte-derived myofibroblasts) (human) (UniProt P11215). Description: cell-based or functional assay.

Regarding `O=C(COc1ccc2c(c1)OCO2)NC(=O)NCCc1c[nH]c2ccccc12` [KCH-1521], in [1], the adhesion-dependent angiogenesis result is listed as “decreases adhesion-dependent angiogenesis”; the “distinction between talin1 and talin2” value was “does not distinguish between talin1 and talin2”.
`COC(=O)c1ccc2c(c1)NC(=O)/C2=C(\Nc1ccc(N(C)C(=O)CN2CCN(C)CC2)cc1)c1ccccc1` [nintedanib]: in data set [2], the “effect on progression of fibrosis” value is listed as “slow, but do not reverse, the progression of fibrosis”.
In the case of `Cc1ccc(=O)n(-c2ccccc2)c1` [pirfenidone], in data set [2], the “effect on progression of fibrosis” value is recorded as “slow, but do not reverse, the progression of fibrosis”.
With PRM-151: recombinant pentraxin-2, in data set [2], the “effect on progression of fibrosis” value is recorded as “shown even a modest ability to reverse fibrosis in some patients”.
As for leukadherin, the “myofibroblast de-differentiation or differentiation as determined by morphology” value in data set [3] is given as “promoted myofibroblasts differentiation”. Besides, the “αSMA+ collagen I+ double positive cells” value in data set [4] (flow cytometry (FIG. 1C)) is “increased the amount of αSMA^+ collagen I^+ double positive cells”. In addition, the talin2 expression entry in data set [4] (flow cytometry (FIG. 1D)) was “nor integrin interaction promoters (Gi14, leukadherin) significantly altered talin2 expression”. Moreover, in [5] (conditioned media after 1 week (FIG. 9A)), the “secreted MCP1” value is on record as “promoted the secretion of MCP1”. Further, in data set [5] (conditioned media after 1 week (FIG. 9C)), the “secreted IL-6” value is “promoted the secretion of MCP1 (FIG. 9A) and IL-6”. In [6], the “myofibroblast de-differentiation or differentiation by morphology” value was “increased monocyte-derived myofibroblast differentiation”. In addition, the “αSMA+ and collagen I+ double positive myofibroblasts” value in [7] (leukadherin 2 ng/ml (FIG. 2C)) is “increased both the amount of α αSMA^+ and collagen I^+ double positive monocyte-myofibroblasts”. In data set [7] (leukadherin 2 ng/ml (FIG. 2D)), the “talin2+ cells / talin2 concentration” value is “increasing talin2 concentration in these cells”.
Consider “talin2 siRNA #2: individual Accell siRNA against mouse talin2; target CUGGAAAAUUCAGUGAUGA (SEQ ID NO:26), antisense UCAUCACUGAAUUUUCCAG (SEQ ID NO:37) (Accell modifications, chemistry not fully specified)”, for which the “αSMA and collagen I double-positive cells / myofibroblast differentiation” value in data set [8] is reported as “inhibited myofibroblast differentiation by itself”. Moreover, the “αSMA and collagen I double-positive myofibroblasts” value in [9] (mouse cell cultures (FIG. 28C)) is “most reduced both αSMA and collagen I double-positive”. In addition, in data set [9] (mouse cell cultures (FIG. 28D)), the talin2 positive myofibroblasts result is “most reduced both αSMA and collagen I double-positive (FIG. 28C) and talin2 positive (FIG. 28D) myofibroblasts”. For the same molecule, in [10] (200 nM by lung instillation at 7, 9, 11, 14, 16, 18 days post bleomycin, to day 21 (FIG. 29A)), the mouse weight result is listed as “showed a lesser transient weight decrease than did the controls”. In addition, the “amount of collagen in the lungs (hydroxyproline assay)” value in data set [10] (200 nM by lung instillation x6, day 21 (FIG. 29B-C)) is listed as “reduced the amount of collagen in the lungs”. Moreover, the “blinded Ashcroft scoring of Masson's trichrome-stained lung sections” value in data set [10] (200 nM by lung instillation x6, day 21 (FIG. 29D)) was “improved the histological readout of lung fibrosis”. Further, in [10] (vs non-targeting siRNA and untreated fibrotic lungs (FIG. 29E-L)), the “lung fibrosis in Masson's trichrome images” value was “rescued lung fibrosis compared to non-targeting siRNA and untreated fibrotic lungs”.
Consider α-αM (clone ICRF44) (antibody), for which the IC50 for human monocyte-myofibroblast differentiation (de-differentiation by morphology) in data set [11] stood at 59.7 ng/ml.
Consider α-αMβ2 (MAC1, clone CBRM1/5) (antibody), for which the IC50 for human monocyte-myofibroblast differentiation (de-differentiation by morphology) in [12] is 63.3 ng/ml.
